According to paper PMC10424176, “Chamelogk: A Chromatographic Chameleonicity Quantifier to Design Orally Bioavailable Beyond-Rule-of-5 Drugs” (Journal of Medicinal Chemistry, 2023):
Entries after “also recorded” stand apart in the source; their conditions may differ. Where two headings read alike, the source gives them in different places.

Legend:
[1] = solubility range class; cited from earlier work
[2] = log kW^IAM and Δ log kW^IAM (IAM chromatography); assay type: physicochemical; conditions: for log kW^IAM: IAM column, extrapolated to 100% buffer from 10 to 50% MeCN, pH 7.0; for Δ log kW^IAM: polarity, from log kW^IAM and BRlogD (eq 4, 5)
Protocol: The mobile phases for every descriptor consisted of isocratic solutions of 20 mM ammonium acetate at pH 7.0 and acetonitrile at various percentages (see the specific descriptor). Small amounts of the 55 compounds were dissolved in buffer/acetonitrile mixtures (v/v) at concentrations ranging from 50 to 100 μg/mL. Subsequently, 10 μL of each solution (injection volume) was injected at an isocratic flow rate of 1 mL/min and analyzed at 30 °C (oven temperature). Chromatographic measurements were then analyzed in duplicate based on the specific chromatographic conditions of each descriptor. […] The retention times of the samples were recorded, and the capacity factor was calculated for each mobile phase condition adapting eq 2, where t0 is the retention time of citric acid.

[3] = Chamelogk, chromatographic chameleonicity descriptor (PLRP-S RP-HPLC); assay type: physicochemical; conditions: Exp. minus Ext. log k' PLRP-S at 100% MeCN; linear fit at 50, 60, 70% MeCN; 20 mM ammonium acetate pH 7.0; 30 °C
[4] = oral activity; cited from earlier work
[5] = physchem; assay type: physicochemical
Protocol: The mobile phases for every descriptor consisted of isocratic solutions of 20 mM ammonium acetate at pH 7.0 and acetonitrile at various percentages (see the specific descriptor). Small amounts of the 55 compounds were dissolved in buffer/acetonitrile mixtures (v/v) at concentrations ranging from 50 to 100 μg/mL. Subsequently, 10 μL of each solution (injection volume) was injected at an isocratic flow rate of 1 mL/min and analyzed at 30 °C (oven temperature). Chromatographic measurements were then analyzed in duplicate based on the specific chromatographic conditions of each descriptor.
BRlogD[39] required the injection of 55 samples into the X-Bridge column at 60% MeCN (predominant mobile phase constituent). The retention times and dead time (t0, baseline interference) were recorded, and the capacity factor log k’60 was calculated adapting eq 2. Lastly, BRlogD value was calculated from eq 3 [drawing 3] 3

[6] = difference between maximum and minimum 3D-PSA among crystallized conformers; cited from earlier work
[7] = cited from earlier work
[8] = XBridge column, 60% MeCN, pH 7.0, read-out: BRlogD
[9] = XBridge Shield RP18 HPLC column, XBridge column, 60% MeCN, pH 7.0, read-out: BRlogD

SMILES | LogS [1] | log kW^IAM [2] | Δ log kW^IAM [2] | Chamelogk [3] | Abs. Route [4] | chromatographic logD [5, 8] | chromatographic logD ([5]; pH 7) | X-Ray Δ 3D-PSA [6] | ChameLogD [7] | chromatographic logD [5, 9] | BRlogD ([5]; XBridge column, 60% MeCN, pH 7.0) | BRlogD ([5]; pH 7)
Cc1sc2c(c1C)C(c1ccc(Cl)cc1)=N[C@@H](CC(=O)Nc1ccc(OCCOCCOCCOCCNc3cccc4c3C(=O)N(C3CCC(=O)NC3=O)C4=O)cc1)c1nnc(C)n1-2 (stereo partly drawn) [ARV-825] | Low range | 3.49 | 1.31 | 0.72 | orally active | 3.49 | – | – | – | – | – | –
Cc1ncsc1-c1ccc(CNC(=O)[C@@H]2C[C@@H](O)CN2C(=O)[C@@H](NC(=O)COCCOCCOCCNC(=O)C[C@@H]2N=C(c3ccc(Cl)cc3)c3c(sc(C)c3C)-n3c(C)nnc32)C(C)(C)C)cc1 [MZ1] | Int. range | 2.83 | 2.24 | 1.15 | not orally bioavailable; also recorded: Non-oral | – | 1.77 | – | – | – | – | –
COC(=O)N[C@H](C(=O)N[C@@H](Cc1ccccc1)[C@@H](O)CN(Cc1ccc(-c2ccccn2)cc1)NC(=O)[C@@H](NC(=O)OC)C(C)(C)C)C(C)(C)C [atazanavir] | – | 2.74 | 0.87 | 0.33 | – | – | – | 34 | 1.6 | 3.15 | – | –
Cc1ncsc1-c1ccc(CNC(=O)[C@@H]2C[C@H](O)CN2C(=O)[C@@H](NC(=O)COCCOCCOCCNC(=O)C[C@@H]2N=C(c3ccc(Cl)cc3)c3c(sc(C)c3C)-n3c(C)nnc32)C(C)(C)C)cc1 [cisMZ1] | Int. range | 2.90 | 2.20 | 1.27 | Non-oral | – | 1.87 | – | – | – | – | –
Cc1c(O)cccc1C(=O)N[C@@H](CSc1ccccc1)[C@H](O)CN1C[C@H]2CCCC[C@H]2C[C@H]1C(=O)NC(C)(C)C [nelfinavir] | – | 2.69 | -0.63 | 0.74 | – | – | – | – | 1.4 | 4.73 | below 5 | –
CC(C)c1nc(CN(C)C(=O)N[C@H](C(=O)N[C@@H](Cc2ccccc2)C[C@H](O)[C@H](Cc2ccccc2)NC(=O)OCc2cncs2)C(C)C)cs1 [ritonavir] | – | 3.02 | 1.02 | 0.67 | – | – | 3.29 | 53 | 1.6 | – | – | –
CC(C)(C)NC(=O)[C@@H]1C[C@@H]2CCCC[C@@H]2CN1C[C@@H](O)[C@H](Cc1ccccc1)NC(=O)[C@H](CC(N)=O)NC(=O)c1ccc2ccccc2n1 [saquinavir] | – | 3.44 | 1.85 | 1.23 | – | – | – | 21 | – | – | – | 2.85
CO[C@H]1C[C@@H]2CC[C@@H](C)[C@@](O)(O2)C(=O)C(=O)N2CCCC[C@H]2C(=O)O[C@H]([C@H](C)C[C@@H]2CC[C@@H](O)[C@H](OC)C2)CC(=O)[C@H](C)/C=C(\C)[C@@H](O)[C@@H](OC)C(=O)[C@H](C)C[C@H](C)/C=C/C=C/C=C/1C [sirolimus] | – | 3.96 | 0.42 | 0.25 | – | – | 4.97 | – | 1.4 | – | – | –
CCC[C@H](NC(=O)[C@@H]1[C@H]2CCC[C@H]2CN1C(=O)[C@@H](NC(=O)[C@@H](NC(=O)c1cnccn1)C1CCCCC1)C(C)(C)C)C(=O)C(=O)NC1CC1 [telaprevir] | – | 3.02 | 0.75 | 0.31 | – | 3.6 | – | 32 | – | – | – | –
